Results reported in BindingDB's records for doi:10.1016/j.bioorg.2005.08.001 (Texas A&M University, 2005).

Target: T1, Dihydroorotase (Escherichia coli (strain K12), UniProt P05020)
T1 sequence (P05020 whole entry): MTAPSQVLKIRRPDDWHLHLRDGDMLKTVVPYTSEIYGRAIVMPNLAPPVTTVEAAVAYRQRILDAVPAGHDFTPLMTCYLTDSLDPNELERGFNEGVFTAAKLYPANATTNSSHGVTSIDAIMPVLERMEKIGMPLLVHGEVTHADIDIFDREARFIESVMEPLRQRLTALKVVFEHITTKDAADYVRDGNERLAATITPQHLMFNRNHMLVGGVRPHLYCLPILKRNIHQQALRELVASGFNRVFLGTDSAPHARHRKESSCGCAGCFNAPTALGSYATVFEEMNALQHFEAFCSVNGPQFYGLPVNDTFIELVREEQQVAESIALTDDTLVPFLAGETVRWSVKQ
Test: Inhibition Assay
Details: pH 7
From the text: The DHO-catalyzed hydrolysis of dihydrooroate was monitored spectrophotoetrically at 230 and 280 nm using a SPECTRAmax (Molecular Device) plate reader.

SMILES: O=C1CC(=O)N[C@H](C(=O)O)C1 [4,6-dioxo-piperidine-2-carboxylic acid, 3]
- Ki: 76 mM
